# Assay results from ChEMBL document CHEMBL1201862, “PubChem BioAssay data set” (2004).
# Calls of active or inactive are those of the source.
# Legend:
# [1] = target: T1, 1-phosphatidylinositol 4,5-bisphosphate phosphodiesterase gamma-1 (Homo sapiens, UniProt P19174); assay: Counterscreen for inhibitors of phospholipase C isozymes (PLC-B3): Fluorescence-based biochemical high throughput dose response assay to identify inhibitors of phospholipase C isozymes (PLC-gamma1).
# T1 sequence (P19174 whole entry): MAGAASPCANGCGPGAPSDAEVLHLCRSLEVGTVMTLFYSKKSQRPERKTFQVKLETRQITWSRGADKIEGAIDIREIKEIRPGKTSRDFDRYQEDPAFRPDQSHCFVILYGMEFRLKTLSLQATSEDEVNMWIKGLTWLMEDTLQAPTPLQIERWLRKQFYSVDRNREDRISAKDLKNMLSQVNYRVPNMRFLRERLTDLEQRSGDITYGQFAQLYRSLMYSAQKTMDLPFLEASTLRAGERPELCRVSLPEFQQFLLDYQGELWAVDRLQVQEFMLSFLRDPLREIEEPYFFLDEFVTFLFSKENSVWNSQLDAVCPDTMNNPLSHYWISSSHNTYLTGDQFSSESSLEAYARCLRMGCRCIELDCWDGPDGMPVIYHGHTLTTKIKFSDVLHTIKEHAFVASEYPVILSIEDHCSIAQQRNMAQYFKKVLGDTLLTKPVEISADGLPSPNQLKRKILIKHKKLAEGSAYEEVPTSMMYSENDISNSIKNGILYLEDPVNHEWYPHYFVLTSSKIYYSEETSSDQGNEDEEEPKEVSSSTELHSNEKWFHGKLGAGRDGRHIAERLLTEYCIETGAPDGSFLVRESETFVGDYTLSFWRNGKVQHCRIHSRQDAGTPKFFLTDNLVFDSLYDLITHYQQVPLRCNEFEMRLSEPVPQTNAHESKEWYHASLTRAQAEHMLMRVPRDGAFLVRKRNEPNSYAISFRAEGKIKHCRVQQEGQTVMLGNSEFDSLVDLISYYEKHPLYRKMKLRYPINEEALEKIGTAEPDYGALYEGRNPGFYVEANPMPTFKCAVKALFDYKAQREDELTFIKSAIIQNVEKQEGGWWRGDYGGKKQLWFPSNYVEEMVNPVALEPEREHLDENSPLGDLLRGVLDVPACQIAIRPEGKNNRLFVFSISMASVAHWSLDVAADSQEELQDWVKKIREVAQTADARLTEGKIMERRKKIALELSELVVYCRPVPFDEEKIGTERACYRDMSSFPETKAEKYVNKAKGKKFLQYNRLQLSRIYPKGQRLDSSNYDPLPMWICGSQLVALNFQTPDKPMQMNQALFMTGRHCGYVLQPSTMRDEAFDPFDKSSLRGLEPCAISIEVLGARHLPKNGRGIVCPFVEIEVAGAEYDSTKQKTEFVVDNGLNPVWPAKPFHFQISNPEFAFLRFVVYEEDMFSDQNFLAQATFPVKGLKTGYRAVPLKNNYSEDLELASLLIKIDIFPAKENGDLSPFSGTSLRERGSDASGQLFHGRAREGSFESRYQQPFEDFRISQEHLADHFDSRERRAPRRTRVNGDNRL
# Cysteine protease ATG4B = target: T2, Cysteine protease ATG4B (Homo sapiens, UniProt Q9Y4P1); assay type: functional;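 also: Fluorescence-based dose-response confirmation assay measuring inhibition of ATG4B activity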
# T2 sequence (Q9Y4P1 whole entry): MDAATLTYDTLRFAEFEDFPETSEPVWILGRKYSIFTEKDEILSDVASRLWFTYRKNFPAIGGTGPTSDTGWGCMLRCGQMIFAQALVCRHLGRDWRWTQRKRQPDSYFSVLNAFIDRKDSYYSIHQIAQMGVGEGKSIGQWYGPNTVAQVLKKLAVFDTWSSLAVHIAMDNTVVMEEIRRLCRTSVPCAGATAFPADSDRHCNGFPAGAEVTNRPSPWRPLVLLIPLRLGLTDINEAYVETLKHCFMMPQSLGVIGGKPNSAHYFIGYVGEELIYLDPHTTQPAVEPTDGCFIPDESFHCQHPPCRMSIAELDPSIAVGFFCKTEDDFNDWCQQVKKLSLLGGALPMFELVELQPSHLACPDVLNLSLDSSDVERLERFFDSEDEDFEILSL
# Beta-galactosidase = Beta-galactosidase (Escherichia coli, UniProt Q8VNN2); assay: detection-enzyme interference by beta-gal modulators – biochemical, E. coli enzyme, set 3, artefact control for CCR6 antagonist project, dose response (AID 504712); assay type: functional
# Chain of Beta-galactosidase (Q8VNN2 whole entry): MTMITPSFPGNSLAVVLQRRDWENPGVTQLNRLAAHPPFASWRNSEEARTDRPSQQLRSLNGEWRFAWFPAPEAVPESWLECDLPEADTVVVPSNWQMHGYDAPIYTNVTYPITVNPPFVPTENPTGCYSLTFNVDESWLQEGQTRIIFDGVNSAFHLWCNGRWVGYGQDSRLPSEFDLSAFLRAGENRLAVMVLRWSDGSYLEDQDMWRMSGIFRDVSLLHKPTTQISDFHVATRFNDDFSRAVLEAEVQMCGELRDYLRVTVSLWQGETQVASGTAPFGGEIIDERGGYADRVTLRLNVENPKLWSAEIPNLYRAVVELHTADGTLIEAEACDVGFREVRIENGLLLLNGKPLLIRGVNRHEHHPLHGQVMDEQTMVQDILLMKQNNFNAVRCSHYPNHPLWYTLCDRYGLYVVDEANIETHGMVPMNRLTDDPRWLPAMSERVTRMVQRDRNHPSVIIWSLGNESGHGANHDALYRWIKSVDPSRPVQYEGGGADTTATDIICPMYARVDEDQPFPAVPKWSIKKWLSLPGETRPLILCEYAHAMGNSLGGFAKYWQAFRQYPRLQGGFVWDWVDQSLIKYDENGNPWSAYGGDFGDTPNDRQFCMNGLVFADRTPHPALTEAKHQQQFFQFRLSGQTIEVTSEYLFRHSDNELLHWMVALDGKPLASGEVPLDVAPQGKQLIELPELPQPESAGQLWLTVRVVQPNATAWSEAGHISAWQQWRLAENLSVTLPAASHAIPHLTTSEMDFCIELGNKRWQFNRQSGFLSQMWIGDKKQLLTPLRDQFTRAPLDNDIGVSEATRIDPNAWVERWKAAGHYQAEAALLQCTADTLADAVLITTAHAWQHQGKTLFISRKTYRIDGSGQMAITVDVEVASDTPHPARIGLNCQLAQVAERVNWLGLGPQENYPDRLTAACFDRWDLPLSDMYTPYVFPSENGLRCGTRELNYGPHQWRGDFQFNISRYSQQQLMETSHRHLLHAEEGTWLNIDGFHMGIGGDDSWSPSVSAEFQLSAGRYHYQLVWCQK
# Vero = assay: cells; assay type: functional; conditions: Chlorocebus sabaeus
# [2] = viability of uninfected HEp-2 cells – cell-based, HTS, cytotoxicity control for RSV inhibitor project, dose response (AID 2410); assay type: functional; conditions: human respiratory syncytial virus
# [3] = DRD fibroblast viability loss – cell-based, non-viral oncogenic, luminescence, dose response (AID 1934); assay type: functional; conditions: Homo sapiens
# [4] = target: T3, Mannose-6-phosphate isomerase (Homo sapiens, UniProt P34949); assay: MPI inhibition at elevated mannose 6-phosphate – biochemical, fluorescence intensity, high mannose 6-phosphate, primary screen (AID 1220)
# T3 sequence (P34949 whole entry): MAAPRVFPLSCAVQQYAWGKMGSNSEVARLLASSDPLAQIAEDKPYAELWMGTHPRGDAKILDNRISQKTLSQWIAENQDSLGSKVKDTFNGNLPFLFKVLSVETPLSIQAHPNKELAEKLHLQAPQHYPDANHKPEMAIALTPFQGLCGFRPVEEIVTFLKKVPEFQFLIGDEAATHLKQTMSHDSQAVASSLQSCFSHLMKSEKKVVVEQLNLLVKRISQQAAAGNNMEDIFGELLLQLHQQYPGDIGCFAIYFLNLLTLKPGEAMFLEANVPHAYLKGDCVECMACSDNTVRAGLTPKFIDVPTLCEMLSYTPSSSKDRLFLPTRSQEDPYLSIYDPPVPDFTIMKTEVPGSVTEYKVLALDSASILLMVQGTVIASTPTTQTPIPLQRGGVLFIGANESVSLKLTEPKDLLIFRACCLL
compound,measurement,setting,value
Cc1ccccc1NC1=C/C(=N\S(=O)(=O)c2ccc(C(=O)O)cc2)c2ccccc2C1=O,IC50,[1],90.1 µM (inactive)
same,IC50,Cysteine protease ATG4B,5.85 µM (active)
Cc1ccc(NC2=C/C(=N/S(=O)(=O)c3cccs3)c3ccccc3C2=O)cc1,IC50,Beta-galactosidase,50.8 µM (inactive)
O=C(Nc1ccc(C#Cc2ccccc2)cc1)C1CC1,CC50,Vero,> 25 µM (active)
same,CC50,[2],26.9 µM (active)
COC(=O)C[C@]1(C(=O)OC)CN(C#N)N(c2ccc(Cl)cc2)C12c1ccccc1-c1ccccc12,EC50,[3],3.62 µM (active)
CCCCn1c(NC(=O)c2ccco2)c(C(=O)OCC)c2nc3ccccc3nc21,IC50,[4],> 50 µM (not active)
